Reference: PubChem BioAssay (NCI)
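The compound was tested at five concentrations on cells cultured in 96-well plates, with a 48-hour exposure period. GI50: concentration for 50% inhibition of growth. The concentration for full growth arrest is given as TGI.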

Key:
Assay in all cases: inhibition of tumour cell growth, NCI panel, 48 h
COLO 205 colon = tested on: COLO 205 colon
HCC-2998 colon = tested on: HCC-2998 colon
KM12 colon = tested on: KM12 colon
LOX IMVI melanoma = tested on: LOX IMVI melanoma
NCI-H460 lung = tested on: NCI-H460 lung
OVCAR-3 ovarian = tested on: OVCAR-3 ovarian
RXF 393 renal = tested on: RXF 393 renal
SF-295 CNS = tested on: SF-295 CNS
U251 CNS = tested on: U251 CNS
UACC-62 melanoma = tested on: UACC-62 melanoma

Compound	GI50 (COLO 205 colon) [µM]	TGI (COLO 205 colon) [µM]	GI50 (HCC-2998 colon) [µM]	TGI (HCC-2998 colon) [µM]	GI50 (KM12 colon) [µM]	TGI (KM12 colon) [µM]	GI50 (LOX IMVI melanoma) [µM]	TGI (LOX IMVI melanoma) [µM]	GI50 (NCI-H460 lung) [µM]	TGI (NCI-H460 lung) [µM]	GI50 (OVCAR-3 ovarian) [µM]	TGI (OVCAR-3 ovarian) [µM]	GI50 (RXF 393 renal) [µM]	TGI (RXF 393 renal) [µM]	GI50 (SF-295 CNS) [µM]	TGI (SF-295 CNS) [µM]	GI50 (U251 CNS) [µM]	TGI (U251 CNS) [µM]	GI50 (UACC-62 melanoma) [µM]	TGI (UACC-62 melanoma) [µM]
COc1cccc2c(=O)c3c(sc12)c(NCCCNCCO)nc1ccccc13	1.45	3.09	1.59	3.21	1.72	3.23	1.48	2.96	1.54	3.15	1.64	3.16	1.46	2.84	1.71	3.24	1.53	3.02	1.6	3.03
CC(C)[O-].CC(C)[O-].CN(CCN(C)Cc1cc(F)cc(F)c1[O-])Cc1cc(F)cc(F)c1[O-].[Ti+4]	1.62	4.86	2.22	7.52	0.907	2.95	0.784	3.88	0.575	2.83	0.923	6.78	0.357	1.31	0.71	3.76	0.438	1.83	1.26	3.09
COc1ccc(-c2c(C3=NCCCN3)nnn2-c2ccc([N+](=O)[O-])cc2)cc1		> 100		> 100		> 100		> 100		> 100		> 100		> 100		> 100		> 100		> 100
O=C(c1cccs1)C1NO[N+]([O-])=C1c1cccs1 (stereo not given)	1.8	4.51	17.2	31.7	3.33	12.1	2.4	6.5	5.37	13.1	1.79	3.2	1.68	3.42	6.07	12.4	5.6	12	12.1	24.8
CCN(CC)c1ccc(/C=C/C2=[N+](C)c3ccccc3C2(C)C)c(C)c1	0.0489	0.127	0.102	5.27	0.0491	1.36	0.0535	1.28	< 0.0222	1.3	0.0616	1.47	0.0837	2.85	0.0358	1.49	0.0364	2.54	0.0998	2.14
N#Cc1c(-c2ccco2)cc(-c2ccccc2)[nH]c1=O		> 100		> 100		> 100		> 100		> 100		> 100		> 100		> 100		> 100		> 100
C=C1C(=O)C23C(O)C1CC[C@H]2C12CCCC(C)(COC(C)=O)[C@H]1[C@H](O)[C@]3(O)OC2 (stereo not given in full)		4.14		3.32		6.07		3.17		6.36		2.99		1.58		2.41		5.4		3.16
CCNCCNc1cc(-c2ccc(C#N)cc2)c(C#N)c2nc3ccccc3n12	1.88	4.16	6.04	20.8	3.36	12.2	1.72	3.29	2.47	5.66	1.66	3.09	1.74	4.1	1.79	3.6	2.34	5.2	2.02	4.18
O=C(Cl)C1=C(c2ccccc2)C1c1ccccc1 (stereo not given)		> 100		> 100		> 100		> 100		> 100		> 100		> 100		> 100		> 100		> 100
CCOC(=O)c1c(SCCN2CCOCC2)n(-c2ccccc2)c(=S)n(-c2ccccc2)c1=O		> 100		> 100		> 100		33.3		> 100		> 100		33.9		61.2		> 100		> 100
O=C(NCCN1CCNCC1)c1ccc(Nc2nc3ccccc3c3occc23)cc1	10.6	> 100	1.79	3.9	19	40.6	15.2	33.1	17.4	> 100	14.5	80.1	6.92	26.4	10.9	30.5	17.9	33.1	17.6	32
COc1ccc(Nc2nccc(N3CCN(c4c5ccc(Cl)cc5nc5ccc(OC)cc45)CC3)n2)cc1	16.9	> 100	23.5	> 100	6.96	> 100	6.11	> 100	8.13	> 100	11.1	> 100	1.78	6.8	10.7	42.3	4.36	> 100	16.8	> 100
O=C(/C=C/c1cccc(O)c1)c1cccc(-n2cc(-c3ccc4ccccc4c3)[nH]c2=O)c1	2.09	4.65	2.13	5.11	1.21	2.45	0.858	2.08	1.67	3.19	1.33	2.78	1.41	3.07	1.44	3.63	1.09	2.28	1.8	4.92
O=C(O)c1ccccc1C(=O)c1ccc2c(c1)Cc1ccccc1-2		> 100		88		> 100		> 100		> 100		> 100		> 100		> 100		> 100		> 100
CSc1ccc(N(C)c2nc(C)nc3c2CCC3)cc1	< 0.01	< 0.01	< 0.01	10.8	< 0.01	12.9	< 0.01	13.7	< 0.01	19	< 0.01	< 0.01	< 0.01	> 100	< 0.01	12.2	< 0.01	> 100	< 0.01	25
Cn1c(=O)nc2n(-c3ccc(Cl)c(C(F)(F)F)c3)c3ccccc3nc-2c1=O		49.9		80.8		> 100		> 100		> 100		> 100		> 100		> 100		> 100		35.4

Compound	GI50 (COLO 205 colon) [µM]	TGI (COLO 205 colon) [µM]	GI50 (HCC-2998 colon) [µM]	TGI (HCC-2998 colon) [µM]	GI50 (KM12 colon) [µM]	TGI (KM12 colon) [µM]	GI50 (LOX IMVI melanoma) [µM]	TGI (LOX IMVI melanoma) [µM]	GI50 (NCI-H460 lung) [µM]	TGI (NCI-H460 lung) [µM]	GI50 (OVCAR-3 ovarian) [µM]	TGI (OVCAR-3 ovarian) [µM]	GI50 (RXF 393 renal) [µM]	TGI (RXF 393 renal) [µM]	GI50 (SF-295 CNS) [µM]	TGI (SF-295 CNS) [µM]	GI50 (U251 CNS) [µM]	TGI (U251 CNS) [µM]	GI50 (UACC-62 melanoma) [µM]	TGI (UACC-62 melanoma) [µM]
Cc1ccc(NC(=O)/C(Cc2cc(=O)oc3cc(O)ccc23)=N\NC(=O)C[N+](C)(C)C)cc1C		> 100		> 100		> 100		> 100		> 100		> 100		> 100		> 100		> 100		> 100
COC(=O)C1C(=O)N(CCc2c[nH]c3ccccc23)C[C@@H]2CCC(=O)C[C@H]12 (stereo not given in full)		> 100		> 100		> 100		> 100		> 100		> 100		> 100		> 100		> 100		> 100
COc1ccc(C2Oc3c(c(O)cc4c3[C@H](c3ccc(O)cc3O)[C@H](O)C(c3ccc(O)c(O)c3)O4)C[C@@H]2O)cc1O (stereo not given in full)		> 100		> 100		> 100		> 100		> 100		> 100		> 100		> 100		> 100		> 100
c1cnn2ncc(-c3ccnc(Nc4ccc5c(c4)OCCO5)n3)c2c1	0.0473	0.107	0.0911	0.514	0.07	0.303	0.0392	> 25	0.0731	0.258	0.0548	0.142	0.0535	0.137	0.0799	0.987	0.0778	2.69	0.0475	0.113
COc1cc2nc(-c3ccc(C(F)(F)F)cc3)cc(OCCCN3CCCC3)c2cc1OC	0.398	4.54	2.07	10	1.73	30.1	0.116	0.322	0.597	19.6	4.07	> 42.2	0.448	3.85	0.393	1.64	1.31	18.8	1.57	6.6
CC(C)Oc1ccc(C(=O)Cn2ccnc2)cc1-n1c(CN2CCN(C(=O)COc3ccc(Cl)cc3)CC2)nc2ccccc2c1=O	7.34	32.7	15.7	31	17	36.2	9.64	27.5	16.8	33.7	2.18	13.2	7.48	22.2	14.8	31.6	13.2	30.2	12.8	28.9
CCCCCCCCCCCC1CC(=O)NCCCN(C)CCCCN(C)CCCN1C (stereo not given)		3.03		3.21		2.96		2.84		2.66		3.07		3.02		3.07		3.04		3.09
O=c1c2ccccc2sc2ccccc12		> 100		> 100		> 100		> 100		> 100		> 100		> 100		> 100		> 100		> 100
CCn1c(-c2nonc2N)nc2ccncc21	> 25	> 25	> 25	> 25	> 25	> 25	> 25	> 25	> 25	> 25	> 25	> 25	> 25	> 25	> 25	> 25	> 25	> 25	> 25	> 25
CC1OC(c2ccc3c(c2O)C(=O)C2=C(C3=O)C3(O)C(=O)CC(C)(O)CC3(O)C=C2)CC(O)C1O (stereo not given)		3.39		31.7		> 60.6		30.9		> 64.9		15.8		26.8		34.2		31.4		30.4
COc1cccc(COc2cc(-n3cnc4ccccc43)sc2C(N)=O)c1	4.75	> 25	> 25	> 25	2.42	> 25	> 25	> 25	9.23	> 25	5.09	> 25	5.69	> 25	> 15.6	> 25	> 13.6	> 25	18.1	> 25
CC1c2ccccc2N=C2SC(=S)N3CCN=C3N21 (stereo not given)	> 100	> 100	> 100	> 100	> 100	> 100	> 100	> 100	> 100	> 100	> 100	> 100	> 100	> 100	97.8	> 100	> 100	> 100	> 100	> 100
c1ccc2[nH]c(CNc3ccc(C4C[Se]N=N4)cc3)nc2c1 (stereo not given)		> 100		> 100		> 100		> 100		> 100		96.9		> 100		92.3		> 100		99
Cc1cccc(N(CC(=O)O)S(=O)(=O)c2ccccc2)c1		> 100		> 100		> 100		> 100		> 100		> 100		> 100		> 100		> 100		> 100
Cc1nc(-c2cccnc2)sc1C(=O)/C=C/c1cccc([N+](=O)[O-])c1		> 100		> 100		> 100		> 100		> 100		> 100		> 100		> 100		> 100		> 100
